In test [1] the test system is Nox1. The test can be described thus: Nuclear localization of Nox1-EGFP in N27 cells (confocal microscopy). It counts as cell-based, rat. Conditions: N27 cells expressing Nox1-EGFP; 6-OHDA 50 μM 6 h, rotenone 5 μM 18 h. An excerpt: The observation that Nox1 was induced by a variety of oxidative stimuli in vitro led one to test Nox1 expression in the rat substantia nigra DA (SNDA) neurons administered with 6-OHDA. […] Neither astrocytes nor microglia expressed Nox1, as verified by co-immunostaining of Nox1 with GFAP (astrocytes) or CD11b (microglia) (FIG. 3B). Increased Nox1 transcript was found in the SN as shown by in situ hybridization (FIG. 3C). […] As early as 3 days post 6-OHDA injection, Nox1 expression was increased in the nucleus and in the cytoplasm of DA neurons (FIG. 4A). […] Nuclear expression of the Nox1/Rac1 complex was further analyzed in N27 cells after treatment with 6-OHDA. First, activated Rac1 was detected by immunoprecipitation of nuclear extracts of N27 cells after a 24 h treatment with 6-OHDA. […] Next, it was established that N27 cells stably expressing Nox1 tagged with EGFP at the C-terminus. […] To examine whether nuclear translocation of Nox1 in dopaminergic cells is observed under different conditions that cause dopaminergic neuronal death, mitochondrial respiratory complex inhibitor, rotenone, was tested.

The subject of test [2] is Rac1. The test can be described thus: Rac1 activation assay (active GTPase pull-down) in N27 cells. It is filed as cell-based, rat. The following applies: 6 h post administration. An excerpt: The NADPH oxidase is a multi-subunit enzyme that consists of the catalytic subunits (Nox isoforms) together with the regulatory subunits including p22phox, p47phox, p40phox, p67phox, Nox organizer 1 (Noxo1), Nox activator 1 (Noxa1), and small GTPase Rac1. In order to test whether dopaminergic (DA) cells are equipped with the NOX components, N27, a well-established rat DA cell line was examined (Prasad et al. 1994). The mRNAs encoding each Nox isoform and regulatory subunits were detected using RT-PCR. Since transcriptional induction of Nox1 and Nox4 has already been reported in several tissues under a variety of stimuli, transcripts were determined in both nontreated and 6-hydroxydopamine (6-OHDA), a DA neurodegenerative compound, treated DA cells. ROS generation as induced by 6-OHDA (100 μM) and subsequent cell death was observed. All Nox isoforms (Nox1, Nox2, Nox4, Duox1 and Duox2) except Nox3 and Nox5 were detected (FIG. 1A). […] Mitochondria, which have long been considered as a major source of ROS, play a key role in Nox1-mediated superoxide generation (Desouki et al. 2005). […] Cytoplasmic regulatory subunits including p47phox, Noxa1, and Noxo1 were constitutively expressed in DA cells as well (FIG. 1A). Noxa1 and Noxo1 are homologues of p67phox and p47phox, respectively. […] GTP-bound active Rac1 was measured in DA cells treated with 6-OHDA for various duration from 1 h to 6 h. […]

Test [3] deals with SN dopaminergic neurons. The test can be described thus: Stereological count of TH-positive dopaminergic neurons in the SN, PQ rat model. It is filed as in vivo. Conditions: vector+PQ group, or Nox1 shRNA+PQ group. How it is done:
The experiments were performed on rats, in accordance with the National Institutes for Health Guide for the Care and Use of Laboratory Animals. All procedures were approved by the local Animal Care and Use Committee. Male Wistar rats (8-10 weeks; Charles River) were maintained in a temperature/humidity-controlled environment under a 12 h light/dark cycle with ad libitum access to food and water. As depicted in FIG. 13A, each animal received four intraperitoneal injections, separated by 1 d, of either vehicle (saline) or PQ (10 mg/kg body weight; b.w.), according to a previously published dose (Manning-Bog et al., 2002; Harraz et al., 2008; Cristovao et al., 2009). All animals were weighed at day 1 and 12. In the studies using the paradigm depicted in FIG. 13A, 4 weeks before starting PQ intraperitoneal injection, animals were stereotaxically injected with various viral constructs at the right SN using the following coordinates: mediolateral, +2.0; anteroposterior, −5.3; dorsoventral, −6.8. […]
Following perfusion with saline and 4% PFA in PBS, brains were removed, and forebrain and midbrain blocks were immersion fixed in 4% PFA and cryoprotected in sucrose. […] The numbers of TH-immunoreactive cells in the SN were counted using an optical fractionator. […]

For `NCCc1cc(O)c(O)cc1O` [6-OHDA, 6-hydroxydopamine], in test [1], the “nuclear localization of Nox1” value was “translocation of Nox1-EGFP into the nucleus”. The “GTP-bound active Rac1” value in test [2] is recorded as “Rac1 activation was observed”.

On to `C[n+]1ccc(-c2cc[n+](C)cc2)cc1` [PQ, paraquat], for which the “dopaminergic neuronal loss (stereological count of TH-positive neurons)” value in test [3] stood at 37%.

For the origin of these results see US9394544B2, “Ameliorating oxidative stress in neurodegenerative disease via Nox1 targeting” (University of Central Florida Research Foundation, Inc., priority 2013, dated 2016).
